Experimental data reported in patent US20190209581A1, “DOSAGE REGIMEN FOR TREATMENT OF SOLID TUMORS” (Eli Lilly and Company, priority 2016, published 2019).

Experiments:
[1] = tested on: human triple negative invasive ductal breast carcinoma (EL1997); assay: Tumor growth inhibition, patient-derived tumor model EL1997; format: in vivo; details: EL1997 in mice, oral 10 mg/kg (Q2Dx7), 11-days OFF, 8 mg/kg (Mon, Wed, Fri)x4; p <0.0001
Description: To evaluate in vivo efficacy and effect of 4,4,4-Trifluoro-N-[(1S)-2-[[(7S)-5-(2-hydroxyethyl)-6-oxo-7H-pyrido[2,3-d][3]benzazepin-7-yl]amino]-1-methyl-2-oxo-ethyl]butanamide on inhibition of Notch processing pharmacodynamics (PD), several cell lines- and patient-derived xenograft models are used. A2780 is a human ovarian cell line (Sigma-Aldrich, No. 93112519); SW480 is a human colorectal cell line (ATCC No. CCL-228); HCT 116 is a human colorectal cell line (ATCC No. CCL-247); U-87 MG is a human glioblastoma cell line (ATCC No. HTB-14); A375 is a human malignant melanoma cell line (ATCC No. CRL-1619); K-562 is a human chronic myelogenous leukemia (CML) cell line characterized by the presence of a fusion transcript comprised of the Bcr and Abl1 genes (ATCC No. CCL-243); Jurkat; HEL 92.1.7 is a human erythroleukemia cell line (ATCC No. TIB-180). […] Tumor growth and body weight are monitored over time to evaluate efficacy and signs of toxicity. Bidimensional measurements of tumors are performed twice a week and tumor volumes are calculated based on the following formula: (Tumor Volume)=[(L)×(W2)×(Π/6)] where L is mid-axis length and W is mid-axis width. […] The log volume data are analyzed with a two-way repeated measures analysis of variance by time and treatment using the MIXED™ procedures in SAS™ software (version 8.2). […]

N1ICD (cleaved Notch1) = assay: N1ICD analysis (ELISA) in xenograft tumors; format: in vivo, human; details: for % N1ICD Inhibition: 10 mg/kg (Q2Dx7), 11-days OFF
Description: To evaluate in vivo efficacy and effect of 4,4,4-Trifluoro-N-[(1S)-2-[[(7S)-5-(2-hydroxyethyl)-6-oxo-7H-pyrido[2,3-d][3]benzazepin-7-yl]amino]-1-methyl-2-oxo-ethyl]butanamide on inhibition of Notch processing pharmacodynamics (PD), several cell lines- and patient-derived xenograft models are used. A2780 is a human ovarian cell line (Sigma-Aldrich, No. 93112519); SW480 is a human colorectal cell line (ATCC No. CCL-228); HCT 116 is a human colorectal cell line (ATCC No. CCL-247); U-87 MG is a human glioblastoma cell line (ATCC No. HTB-14); A375 is a human malignant melanoma cell line (ATCC No. CRL-1619); K-562 is a human chronic myelogenous leukemia (CML) cell line characterized by the presence of a fusion transcript comprised of the Bcr and Abl1 genes (ATCC No. CCL-243); Jurkat; HEL 92.1.7 is a human erythroleukemia cell line (ATCC No. TIB-180). Each of the cell lines are obtained from the American Type Culture Collection (ATCC) at the ATCC number stated, except the A2780 cell line which is obtained from Sigma-Aldrich at the stated catalog number. The cells are grown in their respective, recommended culture media at 37° C. in 5% CO2 with humidity in the atmosphere. A2780 (2×10^6), SW480 (6×10^6), HCT 116 (6×10^6), U-87 MG (6×10^6), and A-375 (10×10^6) cells in a 1:1 matrigel mix (0.2 mL volume) are implanted by subcutaneous injection in the hind leg of 6-8 weeks of age athymic nude female mice (Harlan Laboratories). K-562 (6×10^6) cells in a 1:1 matrigel mix (0.2 mL volume) are implanted by subcutaneous injection in the hind leg of 6-8 weeks of age CD1 nμ/nμ female mice (Charles River Laboratories). HEL 92.1.7 (7×10^6) in a 1:1 matrigel mix (0.2 mL volume) are implanted by subcutaneous injection in the hind leg of 6-8 weeks of age CB17 severely combined immune deficient female mice (Taconic Farms). Patient-derived tumors are minced into 1-2 mm pieces and mixed with matrigel (1:1) in 0.2 ml volume and implanted by subcutaneous injection in the hind leg of 6-8 weeks of age athymic nude female mice (Harlan Laboratories). Patients-derived tumor models include: human colon carcinoma (EL2144), human triple negative invasive ductal breast carcinoma (EL1997), human colon carcinoma (EL1989, EL 1986), and human glioblastoma (EL 2056) with samples obtained after patient consent and hospital approval from IU Health, Methodist Hospital, Indianapolis, Ind., USA 46206. A total of 7 to 10 mice are used for each group. Just before implantation for A2780, SW480, HEL 92.1.7, A-375, K-562, and patient-derived tumor models, animals are irradiated (450 Total Body Irradiation). Mice are fed ad libitum on normal chow. Treatment is initiated with oral administration (gavage) of compound or vehicle (1% Na-CMC in 0.25% Tween®-80) in 0.2 mL volume when tumor size reached to 150±50 mm^3. At designated time points following treatment, animals are sacrificed by CO2 asphyxiation and cervical dislocation. Tumors are removed and used for PD response analysis. Tumor growth and body weight are monitored over time to evaluate efficacy and signs of toxicity. Bidimensional measurements of tumors are performed twice a week and tumor volumes are calculated based on the following formula: (Tumor Volume)=[(L)×(W2)×(Π/6)] where L is mid-axis length and W is mid-axis width. Tumor volume data are transformed to a log scale to equalize variance across time and treatment groups. The log volume data are analyzed with a two-way repeated measures analysis of variance by time and treatment using the MIXED™ procedures in SAS™ software (version 8.2). The correlation model for the repeated measures is spatial power. Treated groups are compared to the control group at each time point. The MIXED™ procedure is also used separately for each treatment group to calculate adjusted means and standard errors at each time point. Both analyses account for the autocorrelation within each animal and the loss of data that occurs when animals with large tumors are removed from the study early. […]

[2] = Homo sapiens, A2780, 4 h, A2780 tumors 4 hours after last dose, Q2Dx13, p <0.0001

C[C@H](NC(=O)CCC(F)(F)F)C(=O)N[C@@H]1C(=O)N(CCO)c2ncccc2-c2ccccc21 [Compound 1, 4,4,4-trifluoro-N-[(1S)-2-[[(7S)-5-(2-hydroxyethyl)-6-oxo-7H-pyrido[2,3-d][3]benzazepin-7-yl]amino]-1-methyl-2-oxo-ethyl]butanamide]
% TGI [1]: 80.28 (<0.0001) %
% N1ICD Inhibition (N1ICD (cleaved Notch1); EL1989 tumors 4 hours after last dose, 8 mg/kg (Mon, Wed, Fri)x3, p <0.0001): 79.2 (<0.0001) %
% N1ICD Inhibition (N1ICD (cleaved Notch1); EL1997 tumors 4 hours after last dose, 8 mg/kg (Mon, Wed, Fri)x4, p <0.0001): 67.9 (<0.0001) %
inhibition at 8 mg/kg (N1ICD (cleaved Notch1); Homo sapiens, 4 h, EL1986 tumors 4 hours after last dose, (Mon, Wed, Fri)x5, p <0.0001): 84.9%
inhibition at 8 mg/kg (N1ICD (cleaved Notch1); Homo sapiens, 4 h, EL2056 tumors 4 hours after last dose, (Mon, Wed, Fri)x5, p <0.0001): 83.5%
inhibition at 1.5 mg/kg (N1ICD (cleaved Notch1); Homo sapiens, A2780, 4 h, A2780 tumors 4 hours after last dose, 1.5 mg/kg, QDx26, p <0.0001): 59%
inhibition at 3 mg/kg (N1ICD (cleaved Notch1); Homo sapiens, A2780, 4 h, A2780 tumors 4 hours after last dose, (BID)QDx7 + (BID)Q2Dx7, p 0.0004): 50.7%
inhibition at 3 mg/kg (N1ICD (cleaved Notch1); [2]): 58.6%
inhibition at 3 mg/kg (N1ICD (cleaved Notch1); Homo sapiens, A2780, 4 h, A2780 tumors 4 hours after last dose, QDx21, p <0.0001): 62.8%
inhibition at 6 mg/kg (N1ICD (cleaved Notch1); Homo sapiens, A2780, 4 h, A2780 tumors 4 hours after last dose, 6 mg/kg, Q2Dx13, p <0.0001): 60.7%
inhibition at 7 mg/kg (N1ICD (cleaved Notch1); Homo sapiens, A2780, 4 h, A2780 tumors 4 hours after last dose, 7 mg/kg, Q2Dx13, p <0.0001): 65.9%
inhibition at 8 mg/kg (N1ICD (cleaved Notch1); [2]): 71.7%
inhibition at 10 mg/kg (N1ICD (cleaved Notch1); Homo sapiens, A2780, 4 h, A2780 tumors 4 hours after last dose, Q2Dx11, p <0.0001): 68.5%
inhibition at 10 mg/kg (N1ICD (cleaved Notch1); [2]): 74.8%
inhibition at 10 mg/kg (N1ICD (cleaved Notch1); Homo sapiens, A2780, 4 h, A2780 tumors 4 hours after last dose, Q3Dx8, p <0.0001): 55.3%
inhibition at 8 mg/kg (N1ICD (cleaved Notch1); Homo sapiens, A-375, 4 h, A-375 tumors 4 hours after last dose, (Mon, Wed, Fri)x4, p <0.0001): 77.5%
inhibition at 8 mg/kg (N1ICD (cleaved Notch1); Homo sapiens, HCT-116, 4 h, HCT 116 tumors 4 hours after last dose, (Mon, Wed, Fri)x4, p =0.0005): 73%
inhibition at 8 mg/kg (N1ICD (cleaved Notch1); Homo sapiens, HEL 92.1.7, 4 h, HEL 92.1.7 tumors 4 hours after last dose, Q2dx14, p <0.0001): 56.7%
inhibition at 8 mg/kg (N1ICD (cleaved Notch1); Homo sapiens, K562, 4 h, K-562 tumors 4 hours after last dose, (Mon, Wed, Fri)x4, p <0.0001): 47.6%
inhibition at 8 mg/kg (N1ICD (cleaved Notch1); Homo sapiens, SW480, 4 h, SW480 tumors 4 hours after last dose, (Mon, Wed, Fri)x5, p =0.0002): 72.5%
inhibition at 8 mg/kg (N1ICD (cleaved Notch1); Homo sapiens, U-87 MG, 4 h, U-87 MG tumors 4 hours after last dose, (Mon, Wed, Fri)x4, p <0.0001): 87.8%
